Consider 20 compounds from ChEMBL document CHEMBL5303573, “Mapping human microbiome drug metabolism by gut bacteria and their genes” (Nature, 2019).

Series [1] in a line: The drug is tested on Dorea formicigenerans strain: ATCC27755 for biotransformation. The drug concentrations were measured before and after a 12-h incubation by liquid-chromatography-coupled mass spectrometry (LC–MS). The settings on record: 2 µM.
The conditions of series [2]: victivallis vadensis, 12 h, 2 µM.
Description: The drug is tested on Victivallis vadensis strain: ATCC BAA-548 for biotransformation. The drug concentrations were measured before and after a 12-h incubation by liquid-chromatography-coupled mass spectrometry (LC–MS)
Series [3] in a line: The drug is tested on Eggerthella lenta strain: ATCC25559 for biotransformation. The drug concentrations were measured before and after a 12-h incubation by liquid-chromatography-coupled mass spectrometry (LC–MS). The settings on record: 2 µM.
Series [4] is described as follows: The drug is tested on Clostridium symbiosum strain: ATCC14940 for biotransformation. The drug concentrations were measured before and after a 12-h incubation by liquid-chromatography-coupled mass spectrometry (LC–MS). The settings on record: 2 µM.
Series [5] is described as follows: The drug is tested on Bacteroides cellulosilyticus strain: DSM14838 for biotransformation. The drug concentrations were measured before and after a 12-h incubation by liquid-chromatography-coupled mass spectrometry (LC–MS). The settings on record: 2 µM.
Series [6] can be described thus: The drug is tested on Providencia stuartii strain: ATCC25827 for biotransformation. The drug concentrations were measured before and after a 12-h incubation by liquid-chromatography-coupled mass spectrometry (LC–MS). The settings on record: 2 µM.
The conditions of series [7]: parabacteroides distasonis, 12 h, 2 µM.
Description: The drug is tested on Parabacteroides distasonis strain: ATCC8503 for biotransformation. The drug concentrations were measured before and after a 12-h incubation by liquid-chromatography-coupled mass spectrometry (LC–MS)

With `COC1=C(OC)C(=O)C(CCCCCCCCCCO)=C(C)C1=O` [IDEBENONE], the “Bacterial Biotransformation” value in series [1], in series [2], in series [3], in series [4], in series [5] and in series [6] was “Compound NOT metabolized” throughout. Further, the “Bacterial Biotransformation” value in series [7] was “Compound NOT metabolized”.

As to `COc1ccccc1OCC(O)COC(N)=O` (configuration not stated) [METHOCARBAMOL], the “Bacterial Biotransformation” value in series [1], in series [2], in series [3], in series [4], in series [5] and in series [6] was “Compound NOT metabolized” each time. Besides, in series [7], the “Bacterial Biotransformation” value is on record as “Compound NOT metabolized”.

For `NC(=O)N1c2ccccc2CC(=O)c2ccccc21` [OXCARBAZEPINE], the “Bacterial Biotransformation” value is “Compound metabolized” in series [1]; “Compound NOT metabolized” in series [2]; “Compound metabolized” in series [3]; “Compound metabolized” in series [4]; “Compound NOT metabolized” in series [5]; “Compound metabolized” in series [6]. Moreover, the “Bacterial Biotransformation” value in series [7] is recorded as “Compound metabolized”.

As for `CCC(C)n1ncn(-c2ccc(N3CCN(c4ccc(OCC5COC(Cn6cncn6)(c6ccc(Cl)cc6Cl)O5)cc4)CC3)cc2)c1=O` (configuration not stated) [ITRACONAZOLE], the “Bacterial Biotransformation” value in series [1], in series [2], in series [3], in series [4], in series [5] and in series [6] was “Compound NOT metabolized” each time. Besides, the “Bacterial Biotransformation” value in series [7] is listed as “Compound NOT metabolized”.

With `COc1ccc2c(c1)c(CC(=O)O)c(C)n2C(=O)c1ccc(Cl)cc1` [INDOMETHACIN], the “Bacterial Biotransformation” value was “Compound NOT metabolized” in series [1]; “Compound NOT metabolized” in series [2]; “Compound NOT metabolized” in series [3]; “Compound metabolized” in series [4]; “Compound metabolized” in series [5]; “Compound NOT metabolized” in series [6]. Moreover, the “Bacterial Biotransformation” value in series [7] is reported as “Compound metabolized”.

Turning to `Cc1nc(Nc2ncc(C(=O)Nc3c(C)cccc3Cl)s2)cc(N2CCN(CCO)CC2)n1.O` [DASATINIB], the “Bacterial Biotransformation” value in series [1], in series [2], in series [3], in series [4], in series [5] and in series [6] was “Compound NOT metabolized” throughout. Further, the “Bacterial Biotransformation” value in series [7] is on record as “Compound metabolized”.

For `CCN(CC)CC#CCOC(=O)C(O)(c1ccccc1)C1CCCCC1.Cl` (configuration not stated) [OXYBUTYNIN CHLORIDE], the “Bacterial Biotransformation” value in series [1] is recorded as “Compound metabolized”; in series [2] it was “Compound NOT metabolized”; in series [3], “Compound NOT metabolized”; in series [4] it was “Compound metabolized”; in series [5], “Compound NOT metabolized”; in series [6] it was “Compound NOT metabolized”. Moreover, in series [7], the “Bacterial Biotransformation” value is “Compound NOT metabolized”.

Take `CN1CCN(C2=Nc3ccccc3Oc3ccc(Cl)cc32)CC1.O=C(O)CCC(=O)O` [LOXAPINE SUCCINATE]: the “Bacterial Biotransformation” value in series [1], in series [2], in series [3], in series [4], in series [5] and in series [7] was “Compound NOT metabolized” each time.

For `C=CCN1CC[C@]23c4c5ccc(O)c4O[C@H]2C(=O)CC[C@@]3(O)[C@H]1C5` [NALOXONE], the “Bacterial Biotransformation” value was “Compound NOT metabolized” in series [1]; “Compound NOT metabolized” in series [2]; “Compound metabolized” in series [3]; “Compound NOT metabolized” in series [5]; “Compound NOT metabolized” in series [6]; “Compound NOT metabolized” in series [7].

For `CCN(CC)C(=O)C1(c2ccccc2)CC1CN` (configuration not stated), the “Bacterial Biotransformation” value in series [1], in series [2], in series [3], in series [4], in series [6] and in series [7] was “Compound NOT metabolized” throughout.

In the case of `CCN(CC)CCOC(=O)C1(C2CCCCC2)CCCCC1` [DICYCLOMINE], the “Bacterial Biotransformation” value in series [1] was “Compound NOT metabolized”; in series [2], “Compound NOT metabolized”; in series [3], “Compound metabolized”; in series [7], “Compound metabolized”.

For the compound `CO[C@]12C[C@@H](COC(=O)c3cncc(Br)c3)CN(C)[C@@H]1Cc1cn(C)c3cccc2c13` [NICERGOLINE], the “Bacterial Biotransformation” value in series [1] is listed as “Compound NOT metabolized”; in series [2] it was “Compound NOT metabolized”; in series [3], “Compound NOT metabolized”; in series [4], “Compound NOT metabolized”; in series [5] it was “Compound metabolized”; in series [6] it was “Compound NOT metabolized”. Moreover, the “Bacterial Biotransformation” value in series [7] was “Compound NOT metabolized”.

In the case of `CN(C(=O)CN(CCO)CC(=O)N(C)C(C)(C)Cc1ccccc1)C(C)(C)Cc1ccccc1` [OXETHAZAINE], the “Bacterial Biotransformation” value in series [1], in series [2], in series [3], in series [4], in series [5] and in series [6] was “Compound NOT metabolized” each time.

Turning to `CCCN1C[C@H](CSC)C[C@@H]2c3cccc4[nH]cc(c34)C[C@H]21.CS(=O)(=O)O` [PERGOLIDE MESYLATE], the “Bacterial Biotransformation” value in series [1], in series [2], in series [3], in series [4] and in series [6] was “Compound NOT metabolized” each time.

`CCc1nn(CCCN2CCN(c3cccc(Cl)c3)CC2)c(=O)n1CCOc1ccccc1` [NEFAZODONE]: the “Bacterial Biotransformation” value in series [1], in series [2], in series [3], in series [4], in series [5] and in series [6] was “Compound NOT metabolized” each time. Also, in series [7], the “Bacterial Biotransformation” value is “Compound NOT metabolized”.

With `N#Cc1ccc(C(c2ccc(C#N)cc2)n2cncn2)cc1` [LETROZOLE], the “Bacterial Biotransformation” value in series [1], in series [2], in series [4], in series [5], in series [6] and in series [7] was “Compound NOT metabolized” in each case.

Regarding `CCN(CC)CCOC(=O)C(Cc1cccc2ccccc12)CC1CCCO1.O=C(O)C(=O)O` (configuration not stated) [NAFRONYL OXALATE], the “Bacterial Biotransformation” value in series [1], in series [2], in series [4], in series [5], in series [6] and in series [7] was “Compound NOT metabolized” in each case.

In the case of `Cc1ccc(S(=O)(=O)NC(=O)NN2CC3CCCC3C2)cc1` (configuration not stated) [GLICLAZIDE], the “Bacterial Biotransformation” value in series [1], in series [2], in series [3], in series [4], in series [5] and in series [6] was “Compound NOT metabolized” each time. Also, in series [7], the “Bacterial Biotransformation” value is “Compound NOT metabolized”.

As for `OCCN1CCN(CCCN2c3ccccc3Sc3ccc(C(F)(F)F)cc32)CC1` [FLUPHENAZINE], the “Bacterial Biotransformation” value is listed as “Compound metabolized” in series [1]; “Compound NOT metabolized” in series [2]; “Compound NOT metabolized” in series [3]; “Compound metabolized” in series [5]; “Compound metabolized” in series [7].

As for `CN1CCN(C(=O)O[C@H]2c3nccnc3C(=O)N2c2ccc(Cl)cn2)CC1` [ESZOPICLONE], the “Bacterial Biotransformation” value in series [1] is recorded as “Compound NOT metabolized”; in series [2] it was “Compound NOT metabolized”; in series [3] it was “Compound NOT metabolized”; in series [4], “Compound NOT metabolized”; in series [5], “Compound metabolized”; in series [6], “Compound NOT metabolized”. Besides, the “Bacterial Biotransformation” value in series [7] is reported as “Compound NOT metabolized”.
